Test results: US8802597B2, “Herbicidal pyrimidines” (E I du Pont de Nemours and Company, priority 2003, dated 2014)

Assays:
Test in all cases: Test C pre/postemergence
Type in all cases: in vivo
Conditions in all cases: Preemergence
[1] = test system: woolly cupgrass (Eriochloa villosa)
Procedure, shortened: (§1)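 Greenhouse pot test: seeds treated preemergence, or plants at 2–18 cm (1- to 4-leaf stage) treated postemergence, with compound in non-phytotoxic solvent plus surfactant. Visual rating versus untreated controls after 12–14 days, scale 0 (no effect) to 100 (complete control); dash means not tested.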

[2] = test system: goosegrass (Eleusine indica)
Procedure, shortened: as §1

[3] = test system: velvetleaf (Abutilon theophrasti)
Procedure, shortened: as §1

[4] = test system: giant foxtail (Setaria faberii)
Procedure, shortened: as §1

[5] = test system: yellow nutsedge (Cyperus esculentus)
Procedure, shortened: as §1

[6] = test system: bermudagrass (Cynodon dactylon)
Procedure, shortened: as §1

[7] = test system: Surinam grass (Brachiaria decumbens)
Procedure, shortened: as §1

[8] = test system: soybean (Glycine max)
Procedure, shortened: as §1

[9] = test system: eastern black nightshade (Solanum ptycanthum)
Procedure, shortened: as §1

[10] = test system: lambsquarters (Chenopodium album)
Procedure, shortened: as §1

[11] = test system: morningglory (Ipomoea coccinea)
Procedure, shortened: as §1

[12] = test system: common ragweed (Ambrosia elatior)
Procedure, shortened: as §1

[13] = 31 g ai/ha, scale 0 to 100, 0 no effect, 100 complete control
[14] = 62 g ai/ha, scale 0 to 100, 0 no effect, 100 complete control

CCOC(=O)C(Cl)c1nc(C2CC2)nc(N)c1Br (centres unmarked) [Compound 31]
Plant response rating, Cupgrass, Woolly [1, 13]: 0
Plant response rating, Cupgrass, Woolly [1, 14]: 0
Plant response rating, Cupgrass, Woolly ([1]; 125 g ai/ha, scale 0 to 100): 0
Plant response rating, Cupgrass, Woolly ([1]; 250 g ai/ha, scale 0 to 100): 0
Plant response rating, Goosegrass [2, 13]: 0
Plant response rating, Goosegrass [2, 14]: 0
Plant response rating, Goosegrass ([2]; 125 g ai/ha, scale 0 to 100): 0
Plant response rating, Goosegrass ([2]; 250 g ai/ha, scale 0 to 100): 20
Plant response rating, Velvetleaf [3, 13]: 0
Plant response rating, Velvetleaf [3, 14]: 0
Plant response rating, Velvetleaf ([3]; 125 g ai/ha, scale 0 to 100): 0
Plant response rating, Velvetleaf ([3]; 250 g ai/ha, scale 0 to 100): 60
Plant response rating, Foxtail, Giant [4, 13]: 0
Plant response rating, Foxtail, Giant [4, 14]: 0
Plant response rating, Foxtail, Giant ([4]; 125 g ai/ha, scale 0 to 100): 0
Plant response rating, Foxtail, Giant ([4]; 250 g ai/ha, scale 0 to 100): 0
Plant response rating, Nutsedge, Yellow [5, 13]: 0
Plant response rating, Nutsedge, Yellow [5, 14]: 0
Plant response rating, Nutsedge, Yellow ([5]; 125 g ai/ha, scale 0 to 100): 0
Plant response rating, Nutsedge, Yellow ([5]; 250 g ai/ha, scale 0 to 100): 0
Plant response rating, Bermudagrass [6, 13]: 0
Plant response rating, Bermudagrass [6, 14]: 0
Plant response rating, Bermudagrass ([6]; 125 g ai/ha, scale 0 to 100): 0
Plant response rating, Bermudagrass ([6]; 250 g ai/ha, scale 0 to 100): 0
Plant response rating, Surinam Grass [7, 13]: 0
Plant response rating, Surinam Grass [7, 14]: 0
Plant response rating, Surinam Grass ([7]; 125 g ai/ha, scale 0 to 100): 0
Plant response rating, Surinam Grass ([7]; 250 g ai/ha, scale 0 to 100): 0
Plant response rating, Soybean [8, 13]: 0
Plant response rating, Soybean [8, 14]: 5
Plant response rating, Soybean ([8]; 125 g ai/ha, scale 0 to 100): 15
Plant response rating, Soybean ([8]; 250 g ai/ha, scale 0 to 100): 80
Plant response rating, Nightshade [9, 13]: 0
Plant response rating, Nightshade [9, 14]: 0
Plant response rating, Nightshade ([9]; 125 g ai/ha, scale 0 to 100): 0
Plant response rating, Lambsquarters [10, 13]: 0
Plant response rating, Lambsquarters [10, 14]: 40
Plant response rating, Lambsquarters ([10]; 125 g ai/ha, scale 0 to 100): 40
Plant response rating, Lambsquarters ([10]; 250 g ai/ha, scale 0 to 100): 80
Plant response rating, Morningglory [11, 13]: 0
Plant response rating, Morningglory [11, 14]: 0
Plant response rating, Morningglory ([11]; 125 g ai/ha, scale 0 to 100): 10
Plant response rating, Morningglory ([11]; 250 g ai/ha, scale 0 to 100): 50
Plant response rating, Ragweed [12, 13]: 5
Plant response rating, Ragweed [12, 14]: 10
Plant response rating, Ragweed ([12]; 125 g ai/ha, scale 0 to 100): 60
Plant response rating, Ragweed ([12]; 250 g ai/ha, scale 0 to 100): 60
